Source: paper PMC4666006 (European journal of cancer (Oxford, England : 1990), 2013)

Columns and labels:
[1] = Pharmacokinetic assessments; type: in vivo, patients; conditions: for AUC(0-t) / Cmax / Tmax: human, serum
patients with RCC = conditions: cited from earlier work
[2] = tested on: patients with advanced renal cell cancer; conditions: ongoing randomised phase III trial; cited from earlier work
[3] = tested on: patients with advanced RCC; assay: Treatment-emergent adverse events; type: in vivo; conditions: all 27 patients
[4] = tested on: patients with advanced RCC; conditions: phase III; cited from earlier work
[5] = tested on: patients with advanced RCC; assay: 3 + 3 dose-escalation: dose-limiting toxicities and recommended phase II dose; type: in vivo
[6] = cited from earlier work
[7] = tested on: patients with advanced RCC; conditions: cited from earlier work

## CO[C@H]1C[C@@H]2CC[C@@H](C)[C@@](O)(O2)C(=O)C(=O)N2CCCC[C@H]2C(=O)O[C@H]([C@H](C)C[C@@H]2CC[C@@H](O)[C@H](OC)C2)CC(=O)[C@H](C)/C=C(\C)[C@@H](O)[C@@H](OC)C(=O)[C@H](C)C[C@H](C)/C=C/C=C/C=C/1C [Sirolimus, sirolimus]
[1]; day 22, Temsirolimus 15 mg/week
  Ratio of sirolimus AUC0–last /temsirolimus AUC0–last, mean (SD): 1.26 (0.67)
[1]; day 22, Temsirolimus 25 mg/week
  Ratio of sirolimus AUC0–last /temsirolimus AUC0–last, mean (SD): 1.48 (0.66)
[1]; intravenous, 15 mg/week
  AUC(0-t): 3.56 µg·h/mL
  Cmax: 0.0513 µg/mL
  Tmax: 3.18 h
[1]; intravenous, 25 mg/week
  AUC(0-t): 6.57 µg·h/mL
  Cmax: 0.0938 µg/mL
  Tmax: 1.81 h

## CNC(=O)c1ccccc1Sc1ccc2c(/C=C/c3ccccn3)n[nH]c2c1 [axitinib]
Patients with RCC
  Grade 3/4 hypertension, patients: 16%
  Incidence of hypertension: 40%

## Cc1ccc(Nc2nccc(N(C)c3ccc4c(C)n(C)nc4c3)n2)cc1S(N)(=O)=O [pazopanib]
Patients with RCC
  Grade 3 hypertension, patients: 4%
  Grade 4 hypertension, patients: 0%
  Incidence of hypertension: 40%

## CNC(=O)c1cc(Oc2ccc(NC(=O)Nc3ccc(Cl)c(C(F)(F)F)c3)cc2)ccn1 [sorafenib]
[2]
  progression-free survival: 9.1 months
Patients with RCC
  Grade 3/4 hypertension, patients: 4–11%
  Incidence of hypertension: 17–29%

## CCN(CC)CCNC(=O)c1c(C)[nH]c(/C=C2\C(=O)Nc3ccc(F)cc32)c1C [sunitinib]
Patients with RCC
  Grade 3 hypertension, patients: 8%
  Grade 4 hypertension, patients: 0%
  Incidence of hypertension: 24%

## CO[C@H]1C[C@@H]2CC[C@@H](C)[C@@](O)(O2)C(=O)C(=O)N2CCCC[C@H]2C(=O)O[C@H]([C@H](C)C[C@@H]2CC[C@@H](OC(=O)C(C)(CO)CO)[C@H](OC)C2)CC(=O)[C@H](C)/C=C(\C)[C@@H](O)[C@@H](OC)C(=O)[C@H](C)C[C@H](C)/C=C/C=C/C=C/1C [temsirolimus]
[3]
  Patients with ≥1 dose reduction/interruption of the drug: 63%
[4]
  Fatigue, temsirolimus-related TEAE: 51%
[1]; intravenous, 15 mg/week
  AUC(0-t): 3.19 µg·h/mL
  Cmax: 0.164 µg/mL
  Tmax: 2.32 h
[1]; intravenous, 25 mg/week
  AUC(0-t): 4.25 µg·h/mL
  Cmax: 0.2 µg/mL
  Tmax: 1.81 h
[5]; intravenously, in combination with tivozanib
  Recommended phase II dose (RP2D), temsirolimus: 25 mg/week

## COc1cc2nccc(Oc3ccc(NC(=O)Nc4cc(C)on4)c(Cl)c3)c2cc1OC [tivozanib]
[3]
  Patients with ≥1 dose reduction/interruption of the drug: 59%
[2]
  progression-free survival: 11.9 months
[1]; oral, […]
  Tmax: 17.3 h
[5]; orally, 3 weeks on/1 week off, in combination with temsirolimus
  Recommended phase II dose (RP2D), tivozanib: 1.5 mg/day
[6]
  half-life: ~ 4.5 d
[7]; phase II, advanced RCC
  Hypertension, treatment-related event, patients: 45%
[7]; tivozanib monotherapy, phase II, advanced RCC
  Fatigue, treatment-related event, patients: 8%
[7]; tivozanib phase II trial
  Grade 3 hypertension, patients: 11%
  Grade 4 hypertension, patients: 1%
